# ChEMBL document CHEMBL5050839, “Methods and compositions for treatment of cancer” (2021)
# The source made the active and inactive calls. The calls are words filed in the database; no cut-off is given here.
# Tests used:
# Format in all cases: functional, cell-based
# Conditions in all cases: for Activity: time 24-48 hrs
# ASPC1 = experiment: Antiproliferative activity against human ASPC1 cells after 24 to 48 hrs by Cell Titer-Glo luminiscent cell viability assay
# MIA PaCa-2 = experiment: Antiproliferative activity against human MIA PaCa-2 cells after 24 to 48 hrs by Cell Titer-Glo luminiscent cell viability assay
# PANC-1 = experiment: Antiproliferative activity against human PANC-1 cells after 24 to 48 hrs by Cell Titer-Glo luminiscent cell viability assay
# BXPC-3 = experiment: Antiproliferative activity against human BXPC-3 cells after 24 to 48 hrs by Cell Titer-Glo luminiscent cell viability assay
Structure (SMILES),Activity (ASPC1),Activity (MIA PaCa-2),Activity (PANC-1),Activity (BXPC-3),IC50 (ASPC1) [µM],IC50 (MIA PaCa-2) [µM],IC50 (PANC-1) [µM],IC50 (BXPC-3) [µM]
C[C@]12CC[C@@H]3c4ccc(OS(=O)(=O)O)cc4CC[C@H]3[C@@H]1CCC2=O,Active,Active,Active,Active,–,–,–,–
Cc1nc2n(c(=O)c1CCN1CCC(c3noc4cc(F)ccc34)CC1)CCCC2O (stereo unspecified),Active,Active,Active,Active,–,–,–,–
CCC1=C(C)CN(C(=O)NCCc2ccc(S(=O)(=O)NC(=O)N[C@H]3CC[C@H](C)CC3)cc2)C1=O,Active,Active,Active,Active,–,–,–,–
Cc1nc2n(c(=O)c1CCN1CCC(c3noc4cc(F)ccc34)CC1)CCCC2 [RISPERIDONE],–,–,–,–,35.3,10,27.6,7.5
CN1CCC(=C2c3ccccc3CC(=O)c3sccc32)CC1,Active,Active,Active,Active,–,–,–,–
CC1(C)O[C@H]2C[C@H]3[C@@H]4CCC5=CC(=O)C=C[C@]5(C)[C@H]4[C@@H](O)C[C@]3(C)[C@]2(C(=O)CO)O1,Active,Active,Active,Active,–,–,–,–
COc1ccc(CCN2CCC(Nc3nc4ccccc4n3Cc3ccc(F)cc3)CC2)cc1 [ASTEMIZOLE],–,–,–,–,5.3,1.3,1.8,3.7
O=C(O)c1ccc(NC(=O)[C@H](Cc2ccc(O)cc2)NC(=O)c2ccccc2)cc1,Active,Active,Active,Active,–,–,–,–
COc1ccc(-c2ccc3cc(C(=O)O)ccc3c2)cc1C12CC3CC(CC(C3)C1)C2,Active,Active,Active,Active,–,–,–,–
